Measured values taken from patent US20240131046A1, “ANTI-VIRAL AGENT” (NATIONAL UNIVERSITY CORPORATION HOKKAIDO UNIVERSITY, priority 2021, published 2024).
Like-named read-outs stand apart in the source and are kept apart here.

Columns and labels:
HCoV-229E [1] = assay: Cell-death suppression effect in coronavirus-infected cells (resazurin); conditions: for EC50: read-out: HCoV-229E EC50 (50% cell death inhibition concentration)
HCoV-229E [2] = system: HCoV-229E
HCoV-OC43 [3] = system: HCoV-OC43
[4] = Cytotoxicity CC50 (Table 1); type: cell-based, human; conditions: human, MRC5 cells
Experimental: (§1) In the following tests, culture-cell strain MRC5 cells from the lungs of a human fetus or culture-cell strain Caco-2 cells from a human colon carcinoma were infected using the viruses. For both cell types, 2% FBS/MEM was used as a culture medium. The 2% FBS/MEM was prepared by adding 2% FBS (fetal bovine serum; made by Gibco) and L-glutamine (made by Wako) to MEM (Minimum Essential Medium; made by Nissui).
(§2) Moreover, from values of EC50 and CC50, SI (CC50/EC50) was calculated.

HCoV-OC43 [5] = assay: Cell-death suppression effect in coronavirus-infected cells (resazurin); conditions: for EC50: read-out: HCoV-0C43 EC50 (50% cell death inhibition concentration)
MRC5 cells = assay: Cytotoxicity CC50 (Table 1); type: cell-based, human
Experimental: as §1, §2

YFV [6] = conditions: non-patent literature 5; read-out: antiviral activity (EC50) against YFV; cited from earlier work
DENV2 = assay: microbe, parasite or virus in culture; type: cell-based; conditions: Dengue virus, DENV2, 96 h; BHK-21 cells, four days, MTT
DENV3 = assay: microbe, parasite or virus in culture; type: cell-based; conditions: Dengue virus, DENV3, 120 h; BHK-21 cells, five days, MTT
SARS-CoV-2 [7] = assay: Viral-RNA replication suppression in infected Caco-2 cells (qRT-PCR); conditions: for EC50: Severe acute respiratory syndrome coronavirus 2, Caco-2, 48 h, read-out: SARS-CoV-2 EC50
HCoV-229E and HCoV-OC43 = assay: Library screening for suppression of cell death of cells infected by a human coronavirus; type: cell-based
Experimental: HCoV-229E (ATCC: VR-740) and HCoV-OC43 (ATCC: VR-1558) obtained from the ATCC were used as coronaviruses that routinely infect humans (human coronaviruses: HCoV).
as §1
HCoV-229E and HCoV-OC43 were used as the human coronavirus.

DENV1 = assay: microbe, parasite or virus in culture; type: cell-based; conditions: Dengue virus, DENV1, 120 h; BHK-21 cells, five days, MTT
JEV = assay: microbe, parasite or virus in culture; type: cell-based; conditions: Japanese encephalitis virus, 72 h; BHK-21 cells, three days, MTT
DENV4 = assay: microbe, parasite or virus in culture; type: cell-based; conditions: Dengue virus, DENV4, 120 h; BHK-21 cells, five days, MTT
WNV = assay: microbe, parasite or virus in culture; type: cell-based; conditions: West Nile virus, 72 h; BHK-21 cells, three days, MTT
ZIKV = assay: microbe, parasite or virus in culture; type: cell-based; conditions: Zika virus, 72 h; BHK-21 cells, three days, MTT
Caco-2 cells = conditions: for cytotoxicity by microscopic observation: Caco-2 cells infected with SARS-CoV-2; for concentration at which mild cytotoxicity, not to an extent of cell extinction, was observed: human
SARS-CoV-2 [8] = assay: Time-of-addition test in infected Caco-2 cells (viral RNA, TCID50 titration); type: cell-based; conditions: 1 μM, treatment timing Whole and Post-Entry
YFV [9] = assay: microbe, parasite or virus in culture; type: cell-based; conditions: Yellow fever virus, BHK-21, 72 h, read-out: EC50 YFV

| Structure (SMILES) | EC50 (HCoV-229E [1]; Human coronavirus 229E, 72 h) [nM] | HCoV-229E SI (CC50/EC50) (HCoV-229E [2]) | HCoV-0C43 SI (CC50/EC50) (HCoV-OC43 [3]) | EC50 (HCoV-OC43 [5]; Betacoronavirus 1, OC43, 72 h) [nM] | EC50 (DENV2) [nM] | EC50 (DENV3) [nM] | EC50 (SARS-CoV-2 [7]) [nM] | antiviral activity (suppressing cell death of infected cells) in library screening (HCoV-229E and HCoV-OC43) | EC50 (DENV1) [nM] | EC50 (JEV) [nM] | EC50 (DENV4) [nM] | EC50 (WNV) [nM] | HCoV-229E SI (CC50/EC50) (HCoV-229E [1]) | antiviral activity (suppressing cell death of infected cells) in library screening (HCoV-229E and HCoV-OC43; HCoV-229E and HCoV-OC43) | cytotoxicity by microscopic observation (Caco-2 cells) | CC50 [4] [nM] | concentration at which mild cytotoxicity, not to an extent of cell extinction, was observed (Caco-2 cells) [nM] | also measured |
| --- | --- | --- | --- | --- | --- | --- | --- | --- | --- | --- | --- | --- | --- | --- | --- | --- | --- | --- |
| CCC(CC)COC(=O)[C@H](C)N[P@](=O)(OC[C@H]1O[C@@](C#N)(c2ccc3c(N)ncnn23)[C@H](O)[C@@H]1O)Oc1ccccc1 [GS-5734, remdesivir, reference compound] | 72 | >694.1 | >221.1 | 230 | – | – | – | – | – | – | – | – | – | – | – | – | – | CC50 ([4]; read-out: CC50): > 50000 nM |
| N#C[C@@]1(c2ccc3c(N)ncnn23)O[C@H](CO)[C@@H](O)[C@H]1O [GS-441524, reference compound] | – | – | – | – | – | – | – | – | – | – | – | – | – | – | – | – | – | EC50 (HCoV-229E [1]; cultured three days, resazurin): 3100 nM; CC50 (MRC5 cells): > 50000 nM; EC50 (YFV [6]): 11000 nM; EC50 (HCoV-OC43 [5]; cultured three days, resazurin): 3700 nM |
| Nc1ncnc2c1c(/C=N\O)cn2[C@@H]1O[C@H](CO)[C@@H](O)[C@H]1O [HUP1069, 5-formyltubercidin oxime] | < 78 | >9.5 | 13 | 55 | < 125 | > 16000 | 200 | had antiviral activity | > 16000 | < 130 | > 16000 | < 130 | – | – | – | – | – | – |
| Nc1c2ccn([C@@H]3O[C@H](CO)[C@@H](O)[C@H]3O)c2nc[n+]1[O-] [HUP1077, tubercidin N-oxide] | 4000 | – | – | – | – | 2300 | 3500 | – | 3200 | 6900 | 2500 | 10700 | 6.1 | had antiviral activity | concerns regarding cytotoxicity were low | – | – | EC50 (ZIKV): 6300 nM; HCoV-0C43 SI (CC50/EC50) (HCoV-OC43 [5]): 5.6 |
| Nc1ncnc2c1c([N+](=O)[O-])cn2[C@@H]1O[C@H](CO)[C@@H](O)[C@H]1O [HUP1078, 5-nitrotubercidin] | 2000 | – | – | > 10000 | > 20000 | – | 100 | – | – | – | – | – | 0.17 | had antiviral activity | – | 330 | ≥ 123 | – |
| Nc1ncnc2c1c(CO)cn2[C@@H]1O[C@H](CO)[C@@H](O)[C@H]1O [HUP1108, 5-hydroxymethyltubercidin] | – | – | – | 350 | – | – | 570 | – | – | – | – | – | >117 | had antiviral activity | concerns regarding cytotoxicity were low | > 50000 | 10000 | concentration range in which virus proliferation was suppressed without cytotoxicity (SARS-CoV-2 [7]; Caco-2 cells): lower than 3.33 μM; relative viral-RNA amount (SARS-CoV-2 [8]; Caco-2 cells, 24 hours, FIG. 3): reduced; viral titer (TCID50) (SARS-CoV-2 [8]; supernatant titrated on VeroE6/TMPRSS2 cells, FIG. 4): reduced; HCoV-0C43 SI (CC50/EC50) (HCoV-OC43 [5]): >141 |
| N#Cc1cn([C@@H]2O[C@H](CO)[C@@H](O)[C@H]2O)c2ncnc(N)c12 [HUP1109, 5-cyanotubercidin] | 2300 | 0.26 | – | > 10000 | > 20000 | – | 200 | had antiviral activity | – | – | – | – | – | – | strong cytotoxicity | 590 | – | – |
| Nc1ncnc2c1ccn2[C@@H]1O[C@H](CO)[C@@H](O)[C@H]1O [HUP1136, tubercidin] | < 78 | >8.5 | 5.9 | – | – | < 125 | 87 | had antiviral activity | > 16000 | < 130 | > 16000 | 200 | – | – | – | – | ≥ 1110 | EC50 (YFV [9]): 150 nM |
